From ChEMBL document CHEMBL1201862, “PubChem BioAssay data set” (2004)
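Compound exposure: 48 hours, 5 concentrations, 96-well plates. At the GI50, growth is halved.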 Active and inactive are the calls of the source. No stated cut-off is given here; in the data, active = GI50 up to about 1.1 µM and inactive = higher.

Tests used:
Assay in all cases: NCI anticancer screen, dose series, 48 h
RXF 393 = test system: RXF 393
SNB-75 = test system: SNB-75
786-0 = test system: 786-0
SK-MEL-5 = test system: SK-MEL-5
HT-29 = test system: HT-29
Malme-3M = test system: Malme-3M
ACHN = test system: ACHN
K562 = test system: K562
OVCAR-8 = test system: OVCAR-8
M14 = test system: M14
HOP-92 = test system: HOP-92
A549 = test system: A549
KM12 = test system: KM12
SF-295 = test system: SF-295
CAKI-1 = test system: CAKI-1
UACC-62 = test system: UACC-62
U-251 = test system: U-251
IGROV-1 = test system: IGROV-1
MCF7 = test system: MCF7

Measured: GI50

O=C1C2=C(SCCS2)C(=O)c2ccccc21
inactive: RXF 393 2.1 µM | SNB-75 1.67 µM | 786-0 1.74 µM | SK-MEL-5 1.69 µM | HT-29 2.18 µM | Malme-3M 1.81 µM | ACHN 1.66 µM | K562 1.77 µM | OVCAR-8 1.67 µM | M14 1.87 µM | HOP-92 1.68 µM | A549 1.9 µM | KM12 1.77 µM | SF-295 1.76 µM | CAKI-1 1.9 µM | UACC-62 1.65 µM | U-251 1.64 µM | IGROV-1 1.77 µM

O=C1NN(c2ccccc2)C(=O)C2C3c4ccccc4C(c4ccccc43)C12 (centres undefined)
inactive: RXF 393 41.1 µM | SNB-75 26.1 µM | 786-0 > 100 µM | SK-MEL-5 > 100 µM | HT-29 32.7 µM | Malme-3M 85.1 µM | ACHN > 100 µM | K562 43.2 µM | OVCAR-8 > 100 µM | M14 > 100 µM | HOP-92 > 100 µM | A549 > 100 µM | KM12 > 100 µM | SF-295 80 µM | CAKI-1 > 100 µM | UACC-62 > 100 µM | U-251 > 100 µM | MCF7 44.2 µM | IGROV-1 > 100 µM

COC(=O)c1cc2c(cc1CC1Cc3cc4c(cc3C1)CCC4)CCC2
inactive: RXF 393 34 µM | SNB-75 40.1 µM | 786-0 > 100 µM | SK-MEL-5 52.6 µM | HT-29 36.3 µM | Malme-3M 86.5 µM | ACHN 43.4 µM | K562 25.8 µM | OVCAR-8 > 100 µM | M14 63.8 µM | HOP-92 27 µM | A549 60.4 µM | KM12 68.7 µM | SF-295 55 µM | CAKI-1 90.6 µM | U-251 34.9 µM | MCF7 25.4 µM | IGROV-1 53 µM

COC(=O)CCc1ccc2c(c1)CC1(C2)Cc2ccc3c(c2C1)CCC3 (centres undefined)
inactive: RXF 393 49.1 µM | SNB-75 > 100 µM | 786-0 69.8 µM | SK-MEL-5 34.4 µM | HT-29 70.3 µM | Malme-3M > 100 µM | ACHN > 100 µM | K562 38.7 µM | OVCAR-8 46.2 µM | M14 59.2 µM | HOP-92 54 µM | A549 53.5 µM | KM12 39.3 µM | SF-295 > 100 µM | UACC-62 23.6 µM | U-251 > 100 µM | MCF7 59.6 µM | IGROV-1 > 100 µM

CCN1CCN(c2ccc(Nc3ccnc4ccc5nn(C)nc5c34)cc2)CC1
inactive: RXF 393 10.2 µM | SNB-75 13.2 µM | 786-0 10.4 µM | SK-MEL-5 15.2 µM | HT-29 4.26 µM | Malme-3M 16.9 µM | ACHN 10.6 µM | K562 5.12 µM | OVCAR-8 9.71 µM | M14 16.1 µM | HOP-92 11.9 µM | A549 13.8 µM | KM12 10.7 µM | SF-295 12.4 µM | CAKI-1 12.8 µM | UACC-62 16.9 µM | U-251 13.5 µM | IGROV-1 18.6 µM

O=C(Cc1ccccc1[N+](=O)[O-])C(CO)c1ccccc1[N+](=O)[O-] (centres undefined)
inactive: RXF 393 92.5 µM | SNB-75 67.3 µM | 786-0 > 100 µM | SK-MEL-5 31.7 µM | HT-29 26.2 µM | Malme-3M 79.4 µM | ACHN 38.2 µM | K562 71.1 µM | OVCAR-8 89.5 µM | M14 > 100 µM | HOP-92 23.6 µM | A549 72.1 µM | KM12 > 100 µM | SF-295 > 100 µM | CAKI-1 40.5 µM | UACC-62 83 µM | U-251 > 100 µM | IGROV-1 > 100 µM

COC1/C=C\OC2(C)Oc3c(C)c(O)c4c(O)c(c(/C=N\OCCCc5ccccc5)c(O)c4c3C2=O)NC(=O)/C(C)=C\C=C/C(C)C(O)C(C)C(O)C(C)C(OC(C)=O)C1C (centres undefined)
inactive: RXF 393 2.9 µM | SNB-75 2.62 µM | 786-0 3.24 µM | SK-MEL-5 1.78 µM | HT-29 3.59 µM | Malme-3M 3.54 µM | ACHN 2.56 µM | K562 4.16 µM | OVCAR-8 4.9 µM | M14 2.71 µM | HOP-92 2.15 µM | A549 3.83 µM | KM12 4.47 µM | SF-295 4.72 µM | CAKI-1 4.32 µM | UACC-62 2.79 µM | U-251 4.36 µM | MCF7 1.17 µM | IGROV-1 2.39 µM

Cc1nc2ccc([N+](=O)[O-])cc2c(=O)n1C(=S)Nc1cccc(Cl)c1
inactive: RXF 393 13.9 µM | SNB-75 16.5 µM | 786-0 24.7 µM | SK-MEL-5 14.1 µM | HT-29 17.7 µM | Malme-3M 21.1 µM | ACHN 17.5 µM | K562 20.7 µM | M14 21.9 µM | HOP-92 3.5 µM | A549 23.2 µM | KM12 12.9 µM | SF-295 18.3 µM | CAKI-1 18.1 µM | UACC-62 12.5 µM | U-251 18.5 µM | MCF7 17.2 µM

Nc1nc(Cl)c2nnn(CC3CCC(CO)C3)c2n1 (centres undefined)
inactive: RXF 393 > 100 µM | SNB-75 > 100 µM | 786-0 > 100 µM | SK-MEL-5 > 100 µM | ACHN > 100 µM | K562 > 100 µM | M14 > 100 µM | HOP-92 > 100 µM | A549 > 100 µM | KM12 > 100 µM | SF-295 > 100 µM | CAKI-1 > 100 µM | UACC-62 > 100 µM | U-251 > 100 µM | MCF7 > 100 µM

CCOC(=O)C1C/C(C)=C(/C)SCCCS1 (centres undefined)
inactive: RXF 393 > 100 µM | 786-0 > 100 µM | SK-MEL-5 45.5 µM | HT-29 > 100 µM | Malme-3M > 100 µM | ACHN > 100 µM | K562 46.1 µM | OVCAR-8 > 100 µM | M14 > 100 µM | HOP-92 > 100 µM | A549 > 100 µM | KM12 > 100 µM | SF-295 > 100 µM | UACC-62 > 100 µM | U-251 > 100 µM | MCF7 > 100 µM | IGROV-1 > 100 µM

[N-]=[N+]=NC1CC(n2ccc(N)nc2=O)OC1COP(=O)(O)OP(=O)(O)OP(=O)(O)O (centres undefined)
inactive: RXF 393 > 100 µM | SNB-75 > 100 µM | 786-0 > 100 µM | SK-MEL-5 > 100 µM | HT-29 > 100 µM | Malme-3M > 100 µM | ACHN > 100 µM | K562 > 100 µM | OVCAR-8 > 100 µM | M14 > 100 µM | A549 > 100 µM | SF-295 > 100 µM | CAKI-1 > 100 µM | UACC-62 > 100 µM | U-251 > 100 µM | MCF7 > 100 µM | IGROV-1 > 100 µM
